Patent US7842685B2, “S1P1 receptor agonists and use thereof” (Amgen Inc., priority 2008, dated 2010)
Where a name gives a salt, the structure may show the parent alone.

Biological target: T1, hS1P1 receptor (Homo sapiens, UniProt P21453)
T1 construct: host or cells: U2OS
Test: hS1P1 receptor internalization assay (cell imaging-based, hS1P1-eGFP U2OS cells)
Conditions: U2OS cell line expressing hS1P1-eGFP, compounds incubated at 37° C. for one hour; for Emax: 1 h, efficacy (Max), read-out: hS1P1 Receptor Internalization (biolimaging) Max (%); for EC50: GFP-containing endosomes per cell (ArrayScan), read-out: hS1P1 Receptor Internalization (bioimaging) EC50 IP
Method: The activity of compounds of the invention was determined by a cell imaging-based assay measuring the degree of hS1P1 receptor internalization and a Ca^2+ mobilization assay measuring the level of S1P receptor activation. The receptor internalization assay was employed to determine the potency and efficacy of compounds on hS1P1 receptor, while Ca^2+ mobilization assay was used to determine selectivity among different S1P receptors and activity on S1P receptors from species such as rat, dog, and cyno. The hS1P1 receptor internalization assay was performed using a U2OS cell line expressing hS1P1-eGFP chimeric protein (Thermo Scientific, Soeborg, Denmark). Upon compound treatment, the hS1P1 receptor was internalized in cytoplasma and formed GFP-containing-endosomes. This event was detected by an automated microscope, ArrayScan (Thermo Scientific Cellomics, Pittsburg), and the degree of receptor internalization is quantitated by counting green fluorescent GFP-containing endosomes per cell. In this assay, hS1P1-eGFP expressing U2OS cells were starved in serum free media for two hours prior to compound treatment. Then compounds were incubated with the starved cells at 37° C. for one hour. Subsequently, compound-treated cells were fixed using 4% formaldehyde, and the nuclei were stained using Hoechst. Then the cells were imaged in ArrayScan. The potency and efficacy of the compounds were determined by plotting the number of green fluorescent GFP-containing endosomes per cell against corresponding compound concentration.

T1 sequence (P21453 whole entry): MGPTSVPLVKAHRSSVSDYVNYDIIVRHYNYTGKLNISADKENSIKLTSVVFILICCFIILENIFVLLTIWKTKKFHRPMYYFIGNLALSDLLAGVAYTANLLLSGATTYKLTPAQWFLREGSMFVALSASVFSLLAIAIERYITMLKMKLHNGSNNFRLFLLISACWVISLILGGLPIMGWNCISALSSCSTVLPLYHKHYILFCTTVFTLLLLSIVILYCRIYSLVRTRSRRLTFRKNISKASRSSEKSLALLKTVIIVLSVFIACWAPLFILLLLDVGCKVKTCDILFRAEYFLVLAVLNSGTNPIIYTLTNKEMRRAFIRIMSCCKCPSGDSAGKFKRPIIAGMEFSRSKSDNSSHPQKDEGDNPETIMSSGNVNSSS

Structure (SMILES)	Emax	EC50
O=C(O)C1CN(Cc2ccc(-c3nc4ccc(C5(C6CCOCC6)CC5)nc4s3)c(F)c2)C1 [Example 52, 1-(3-fluoro-4-(5-(1-(tetrahydro-2H-pyran-4-yl)cyclopropyl)thiazolo[5,4-b]pyridine-2-yl)benzyl)azetidine-3-carboxylic acid trifluoroacetic acid salt]	109%	1190 nM
CC(C)(N)c1ccc(-c2nc3ccc(C4(c5ccccc5)CC4)nc3s2)c(F)c1 [Example 22, 2-(3-fluoro-4-(5-(1-phenylcyclopropyl)thiazolo[5,4-b]pyridine-2-yl)phenyl)-propan-2-amine]	157%	192 nM
O=C(O)C1(F)CN(Cc2ccc(-c3nc4ccc(C5(c6ccccc6)CC5)nc4s3)c(F)c2)C1 [Example 4, 3-fluoro-1-((3-fluoro-4-(5-(1-phenylcyclopropyl)thiazolo[5,4-b]pyridine-2-yl)phenyl)methyl)azetidine-3-carboxylic acid hydrochloride]	121%	1.2 nM
Cc1cc(CN2CC(C(=O)O)C2)ccc1-c1nc2ccc(C3(c4ccccc4)CC3)nc2s1 [Example 19, 1-((3-methyl-4-(5-(1-phenylcyclopropyl)thiazolo[5,4-b]pyridine-2-yl)phenyl)methyl)azetidine-3-carboxylic acid]	121%	1.4 nM
O=C(O)C1CN(Cc2ccc(-c3nc4ccc(C5(C6CCCCC6)CC5)nc4s3)c(F)c2)C1 [Example 47, 1-(4-(5-(1-cyclohexylcyclopropyl)thiazolo[5,4-b]pyridine-2-yl)-3-fluorobenzyl)azetidine-3-carboxylic acid trifluoroacetic acid salt]	117%	5.9 nM
NC(CO)(CCc1ccc(-c2nc3ccc(C4(c5ccccc5)CC4)nc3s2)c(F)c1)COP(=O)(O)O (racemic) [Example 43, (rac)-2-amino-4-(3-fluoro-4-(5-(1-phenylcyclopropyl)thiazolo[5,4-b]pyridine-2-yl)phenyl)-2-(hydroxymethyl)butyl dihydrogen phosphate]	122%	0.3 nM
O=C(O)C1CN(Cc2ccc(-c3nc4ccc(C5(c6ccccc6)CCCCC5)nc4s3)c(F)c2)C1 [Example 7, 1-((3-fluoro-4-(5-(1-phenylcyclohexyl)thiazolo[5,4-b]pyridine-2-yl)-phenyl)methyl)azetidine-3-carboxylic acid]	108%	32.6 nM
NC1(c2ccc(-c3nc4ccc(C5(c6ccccc6)CC5)nc4s3)c(F)c2)CC1 [Example 20, 1-(3-fluoro-4-(5-(1-phenylcyclopropyl)thiazolo[5,4-b]pyridine-2-yl)phenyl)cyclopropanamine]	160%	31.2 nM
O=C(O)C1(C(=O)O)CC(Cc2ccc(-c3nc4ccc(C5(c6ccccc6)CC5)nc4s3)c(F)c2)C1 [Example 30, 3-(3-fluoro-4-(5-(1-phenylcyclopropyl)thiazolo[5,4-b]pyridine-2-yl)benzyl)cyclobutane-1,1-dicarboxylic acid]	79%	2910 nM
O=C(O)C1CN(Cc2ccc(-c3nc4ccc(C5(c6ccccc6)CCO5)nc4s3)c(F)c2)C1 (stereo not drawn) [Example 9, 1-((3-fluoro-4-(5-(2-phenyloxetan-2-yl)thiazolo[5,4-b]pyridine-2-yl)-phenyl)methyl)azetidine-3-carboxylic acid]	144%	28.6 nM
O=C(O)C1CN(Cc2ccc(-c3nc4ccc(C5(c6ccccc6)CC5)nc4s3)c(F)c2)C1 [Example 1, 1-((3-fluoro-4-(5-(1-phenylcyclopropyl)thiazolo[5,4-b]pyridin-2-yl)-phenyl)methyl)azetidine-3-carboxylic acid]	98%	2.5 nM
O=C(O)C1CN(Cc2ccc(-c3nc4ccc(C5(c6ccccc6)CC=CC5)nc4s3)c(F)c2)C1 [Example 5, 1-((3-fluoro-4-(5-(1-phenylcyclopent-3-enyl)thiazolo[5,4-b]pyridine-2-yl)phenyl)methyl)azetidine-3-carboxylic acid]	90%	130 nM

Results, then the molecule that gave them:

Emax	EC50	Structure (SMILES)
126%	4.5 nM	O=C(O)[C@@H]1C[C@H](c2ccc(-c3nc4ccc(C5(c6ccccc6)CC5)nc4s3)c(F)c2)CN1 [Example 54, (2S,4R)-4-(3-fluoro-4-(5-(1-phenylcyclopropyl)thiazolo[5,4-b]pyridine-2-yl)phenyl)pyrrolidine-2-carboxylic acid trifluoroacetic acid salt]
162%	721 nM	Fc1cc(CCNCc2ccccc2)ccc1-c1nc2ccc(C3(c4ccccc4)CC3)nc2s1 [Example 60, N-benzyl-2-(3-fluoro-4-(5-(1-phenylcyclopropyl)[1,3]thiazolo[5,4-b]pyridin-2-yl)phenyl)ethanamine]
148%	563 nM	c1ccc(C2(c3ccc4nc(-c5ccc6c(c5)CCNC6)sc4n3)CC2)cc1 [Example 80, 5-(1-phenylcyclopropyl)-2-(1,2,3,4-tetrahydroisoquinolin-6-yl)thiazolo-[5,4-b]pyridine]
155%	184 nM	CC(=O)NCCc1ccc(-c2nc3ccc(C4(c5ccccc5)CC4)nc3s2)c(F)c1 [Example 150, N-(2-(3-fluoro-4-(5-(1-phenylcyclopropyl)[1,3]thiazolo[5,4-b]pyridin-2-yl)phenyl)ethyl)acetamide]
111%	298 nM	O=C(Nc1ccc(-c2nc3ccc(C4(c5ccccc5)CC4)nc3s2)c(F)c1)C(F)(F)F [Example 118, 2,2,2-trifluoro-N-(3-fluoro-4-(5-(1-phenylcyclopropyl)[1,3]thiazolo[5,4-b]pyridin-2-yl)phenyl)acetamide]
125%	70.4 nM	Cc1cc(-c2nc3ccc(C4(c5ccccc5)CC4)nc3s2)cc(C)c1OC[C@H](O)CO [Example 67, (R)-3-(2,6-dimethyl-4-(5-(1-phenylcyclopropyl)thiazolo[5,4-b]pyridin-2-yl)phenoxy)propane-1,2-diol]
105%	10.9 nM	O=C(O)c1cn(Cc2ccc(-c3nc4ccc(C5(c6ccccc6)CC5)nc4s3)c(F)c2)cn1 [Example 96, 1-(3-fluoro-4-(5-(1-phenylcyclopropyl)thiazolo[5,4-b]pyridin-2-yl)benzyl)-1H-imidazole-4-carboxylic acid hydrochloride]
107%	35.5 nM	O=C(O)C(=O)NCCc1ccc(-c2nc3ccc(C4(c5ccccc5)CC4)nc3s2)c(F)c1 [Example 57, ((2-(3-fluoro-4-(5-(1-phenylcyclopropyl)[1,3]thiazolo[5,4-b]pyridin-2-yl)phenyl)ethyl)amino)(oxo)acetic acid]
55%	732 nM	O=C(NC1CC1)c1ccc(-c2nc3ccc(C4(c5ccccc5)CC4)nc3s2)c(F)c1 [Example 113, N-cyclopropyl-3-fluoro-4-(5-(1-phenylcyclopropyl)[1,3]thiazolo[5,4-b]pyridin-2-yl)benzamide]
